{"source": "patent US20030154507A1", "about": "“Synthetic herbicide resistance gene” (priority 2001, published 2003)", "key": {"plants": {"system": "plants", "settings": "in vivo; cited from earlier work"}, "[1]": {"system": "transgenic cotton plants containing the SAD2 gene (Coker 312)", "assay": "Greenhouse spray of PCR-positive SAD2 transformed cotton plants with 2,4-D amine", "assay_type": "in vivo", "settings": "of 95 plants; 1 lb/acre acid equivalents (twice normal field rate); sprayed at squaring stage or later", "source_text": "The two binary vectors containing the SAD2 gene, pPZP211-PNPT-311-SAD2 and pPZP211-PNPT-512-SAD2, were individually introduced into the EHA 105 strain of Agrobacterium tumefaciens (Hood et al., Transgenic Research, 2:208-218 (1993)) by direct transformation as described by Walker-Peach and Velten, in Plant Molecular Biology Manual, section B1:1-19 (Gelvin, Shilperoort and Verma, eds., Kluwer Academic Publishers, Dordrecht, The Netherlands, 1994)). The constructs were subsequently introduced by Agrobacterium transfection into cotyledon explants from the cotton variety Coker 312 (Coker Seed Inc.). This was achieved by isolating sterile cotyledon tissue (derived from seedlings grown in culture from surface-sterilized seed as described by Trolinder and Gooden, Plant Cell Reports, 6:231-234 (1987)), generating explants (by use of a sterile hole punch), and submerging the explants in a 48-hour-old culture of EHA 105, containing the appropriate construct, grown at 28° C. […]\nA total of 111 kanamycin-resistant cotton seedlings were generated (44 were generated in the pPZP211-PNPT-311-SAD2 transformations, and 67 in the pPZP211-PNPT-512-SAD2 transformations). Each plant was analyzed for the presence of the SAD synthetic coding sequence and the NPTII coding sequence by PCR to ensure the integrity of the inserted DNA. […]"}, "[2]": {"system": "transgenic 2,4-D resistant cotton containing the naturally-occurring tfdA gene construct", "assay": "Spray of 2,4-D res control seedlings, visual damage evaluation", "assay_type": "in vivo", "settings": "55 plants, 1/2 lb/acre acid equivalents at 24 days, evaluated after 10-14 days", "source_text": "(§1) To verify that the inserted synthetic SAD genes were inheritable and to gain an indication of the number of gene insertions, seeds from the seven fertile SAD transgenic cotton plants were planted into hydroponic rock wool slabs (Hummert, St. Louis, Mo.) that had been saturated with Peters Professional water-soluble fertilizer (5-11-26 HYDRO-SOL, supplemented with calcium nitrate and magnesium sulfate to provide a complete nutrient compliment; Hummert, St. Louis, Mo.). The hydroponic rock wool slabs were placed on benches in a greenhouse, and nutrients were maintained at optimal levels using a non-recycling hydroponic watering system. Plants were grown under greenhouse conditions (28° C.±5° C. air temperature) for 24 days. At this point, the plants were removed to a spray hood, sprayed with 2,4-D amine at the normal field rate of 1/2 lb/acre acid equivalents, maintained in the hood for 24 hours to allow the 2,4-D to volatilize, and then placed back in the greenhouse.\n(§2) The negative control of Coker 312 that had been regenerated from tissue culture did show some signs of resistance, so these ratios are not to be considered as definitive measures of Mendelian inheritance of the SAD gene."}, "[3]": {"system": "SAD transgenic cotton plants", "assay": "Spray of seedlings from fertile SAD transgenic cotton lines, visual damage evaluation", "assay_type": "in vivo", "settings": "1/2 lb/acre acid equivalents at 24 days, evaluated after 10-14 days", "source_text": "as §1, §2"}, "[4]": {"system": "Coker 312 (not transgenic) regenerated from somatic embryos", "assay": "Spray of 2,4-D sens control seedlings, visual damage evaluation", "assay_type": "in vivo, cotton", "settings": "45 plants, 1/2 lb/acre acid equivalents at 24 days, evaluated after 10-14 days", "source_text": "as §1, §2"}, "[5]": {"system": "negative controls (cotton)", "assay": "Respray event, negative controls", "assay_type": "in vivo", "settings": "all negative controls; 1/2 lb/acre acid equivalents", "protocol": "(§3) Each plant tested positive for the SAD construct by PCR. These plants were grown for a further 14 days and then resprayed with 2,4-D amine at the normal field rate of 1/2 lb/acre acid equivalents. […] The 35 plants were grown to maturity, and seeds were collected."}, "[6]": {"system": "SAD transgenic cotton plants", "assay": "Respray of undamaged SAD plants with 2,4-D amine", "assay_type": "in vivo", "settings": "all 35 plants (5 from each of 7 SAD lines); resprayed at 1/2 lb/acre acid equivalents 14 days after first evaluation", "protocol": "as §3"}}, "data": [{"smiles": "Oc1ccc(Cl)cc1Cl", "note": "[DCP, 2,4-dichlorophenol]", "values": [{"measurement": "toxicity to plants relative to 2,4-D", "setting": "plants", "value": "much less toxic to plants than 2,4-D"}]}, {"smiles": "CNC.O=C(O)COc1ccc(Cl)cc1Cl", "note": "[2,4-D amine]", "values": [{"measurement": "plants that survived treatment with little or no herbicide damage", "setting": "[1]", "value": 22}, {"measurement": "No Damage (number of plants)", "setting": "[2]", "value": 7}, {"measurement": "Severe damage (number of plants)", "setting": "[2]", "value": 15}, {"measurement": "Some symptoms (number of plants)", "setting": "[2]", "value": 33}, {"measurement": "No Damage (number of plants)", "setting": "[3]; line 311-22-1-4, 43 plants", "value": 16}, {"measurement": "Severe damage (number of plants)", "setting": "[3]; line 311-22-1-4, 43 plants", "value": 11}, {"measurement": "Some symptoms (number of plants)", "setting": "[3]; line 311-22-1-4, 43 plants", "value": 16}, {"measurement": "No Damage (number of plants)", "setting": "[3]; line 311-22-1-5, 47 plants", "value": 6}, {"measurement": "Severe damage (number of plants)", "setting": "[3]; line 311-22-1-5, 47 plants", "value": 23}, {"measurement": "Some symptoms (number of plants)", "setting": "[3]; line 311-22-1-5, 47 plants", "value": 18}, {"measurement": "No Damage (number of plants)", "setting": "[3]; line 311-22-1-8, 56 plants", "value": 14}, {"measurement": "Severe damage (number of plants)", "setting": "[3]; line 311-22-1-8, 56 plants", "value": 14}, {"measurement": "Some symptoms (number of plants)", "setting": "[3]; line 311-22-1-8, 56 plants", "value": 28}, {"measurement": "No Damage (number of plants)", "setting": "[3]; line 512-21-1-5, 56 plants", "value": 8}, {"measurement": "Severe damage (number of plants)", "setting": "[3]; line 512-21-1-5, 56 plants", "value": 14}, {"measurement": "Some symptoms (number of plants)", "setting": "[3]; line 512-21-1-5, 56 plants", "value": 34}, {"measurement": "No Damage (number of plants)", "setting": "[3]; line 512-21-4-3, 30 plants", "value": 7}, {"measurement": "Severe damage (number of plants)", "setting": "[3]; line 512-21-4-3, 30 plants", "value": 3}, {"measurement": "Some symptoms (number of plants)", "setting": "[3]; line 512-21-4-3, 30 plants", "value": 20}, {"measurement": "No Damage (number of plants)", "setting": "[3]; line 512-21-4-5, 41 plants", "value": 5}, {"measurement": "Severe damage (number of plants)", "setting": "[3]; line 512-21-4-5, 41 plants", "value": 12}, {"measurement": "Some symptoms (number of plants)", "setting": "[3]; line 512-21-4-5, 41 plants", "value": 24}, {"measurement": "No Damage (number of plants)", "setting": "[3]; line 512-24-4-4, 63 plants", "value": 7}, {"measurement": "Severe damage (number of plants)", "setting": "[3]; line 512-24-4-4, 63 plants", "value": 35}, {"measurement": "Some symptoms (number of plants)", "setting": "[3]; line 512-24-4-4, 63 plants", "value": 21}, {"measurement": "No Damage (number of plants)", "setting": "[4]", "value": 0}, {"measurement": "Severe damage (number of plants)", "setting": "[4]", "value": 25}, {"measurement": "Some symptoms (number of plants)", "setting": "[4]", "value": 20}, {"measurement": "survival following respray", "setting": "[5]", "value": "did not survive"}, {"measurement": "damage following respray", "setting": "[6]", "value": "no damage"}]}]}
